Measurements reported in patent US9387263B2, “RbAp48 transgenic mice for drug discovery in age-related memory decline” (THE TRUSTEES OF COLUMBIA UNIVERSITY IN THE CITY OF NEW YORK, priority 2011, dated 2016).

System: RbAp48 mRNA expression in hippocampus
Assay: RbAp48 transcript in situ hybridization in adult hippocampus after injection of kainic acid (synaptic stimulation)
Format: in vivo, mouse
Details: wild type mice
Description: FIG. 14: RbAp48 transcript distribution in the adult hippocampus of wild type mice in either control conditions (injection of saline) of after injection of kainic acid (synaptic stimulation). Coronal cryosections were hybridized with radio-labelled oligonucleotides specific for RbAp48. […] This upregulation of RbAp48 lasted for four hours (8 hr to 12 hr time points).
RNA In Situ Hybridizations: RNA in situ hybridizations were performed on fresh frozen adult brain slices using 40-45 base anti-sense oligonucleotides^37. The oligonucleotides used for the detection of RbAp48-DN-Flag and RbAp48 transcripts can be found in supplemental table 3.
Treatment with Kainic Acid Kainic acid (Sigma) was injected intraperitoneally as previously described^42
Because RbAp48 regulates histone acetylation, it was explored whether RbAp48-DN affects the steady state levels of histone acetylation in the hippocampal formation using immunohistochemistry and image quantification analysis to measure histone acetylation. The initial focus was on the DG. […] To test for spatial specificity, the CA1 subregion was examined and no significant reduction in histone acetylation (FIGS. 12c & 12d) was found. As with behavior and fMRI, the effect of RbAp48-DN on H2B and H4 acetylation in the adult DG was reversed when its expression was turned off (mice on dox; FIGS. 12c & 12d).

C=C(C)[C@H]1CN[C@H](C(=O)O)[C@H]1CC(=O)O [kainic acid]
Duration of upregulation of RbAp48 (dentate gyrus, 8 hr to 12 hr time points after kainic acid): four | Expression of RbAp48 (transcript distribution in adult hippocampus) (intraperitoneal kainic acid vs saline, eight hours after application, radio-labelled oligonucleotide in situ hybridization): upregulated specifically in the dentate gyrus
